The assay addresses mammalian target of rapamycin (mTOR) (Homo sapiens, UniProt P42345). The experiment in a line: Invitrogen Z'-LYTE kinase assay, five concentrations. It is filed as biochemical.

A word on the IC50: it is the concentration that gives 50% inhibition. Low values mean greater potency in that assay, high ones weaker potency in that assay.

Compound `C/C=C(/C=O)[C@@H](CC=O)CC(=O)OCCc1ccc(O)cc1` [oleocanthal] showed an IC50 of 708 nM.

(Values after PMC5051273 (Phytotherapy research : PTR, 2015).)
